This note sets out measurements from patent US10450326B2, “Thiazolopyrimidinone compounds and preparation methods and use thereof” (PEKING UNIVERSITY, priority 2015, dated 2019).

A word on the EC50: it is the concentration that produces a half-maximal response.

For the experiment, the target named is T1, α7 nAChR (Homo sapiens, UniProt P36544).
T1 construct: expressed in transfected cells; host or cells: Xenopus oocytes (cRNA injection)
In words: α7 nAChR positive allosteric modulator activity assay, voltage clamp in Xenopus oocytes with 100 μM ACh. It is filed as cell-based. The following applies: for activity at 10 µM: at 10 μM compound, current induced by 100 μM ACh, Xenopus oocytes expressing α7 nAChR, read-out: Max Mod (%, at 10 μM); for EC50: potentiation of current induced by 100 μM ACh, Hill equation fit. As for the experimental part: The experimental process was as follows:
(1) Xenopus oocytes were injected with cRNA encoding α7 nAChR in order to express α7 nAChR on the cell membrane successfully;
(2) 100 μM ACh alone was added, and the α7 nAChR characteristic current caused by it was recorded as a control;
(5) The oocytes were incubated for 1 min with 10 μM compound, then 10 µM compound and 100 μM ACh were added simultaneously and the current induced by ACh was recorded at this time;
(6) The differences between the two currents in terms of peak intensity and duration were compared, with the ratio of peak intensity of the two currents representing the adjustment effect (Enhance Rate), in order to determine whether the compound had PAM activity, if the activity was good, then the subsequent test was carried out;
(7) Concentration gradient was set and the effects of compounds at different concentrations on the α7 nAChR characteristic current induced by 100 μM ACh were evaluated. Several determinations were carried out at the same concentration, and the results were presented in the form of “mean±standard deviation”;
(8) The EC50 (median maximum effect concentration) values and Max mod (the current amplitude caused by the maximal degree of adjustable endogenous agonist acetylcholine) values of the compounds and other activity data were obtained by Hill equation Inormalized=Emax/(1+(EC50/C)nH).
The amplitude of the peak current is only normalized by the amplitude produced by 100 μM ACh and different concentrations of LD486. […] It can be seen from FIG. 3 that the Hill equation is used to fit the dose-response curve and calculate the kinetic parameters.

T1 sequence (P36544 23-502): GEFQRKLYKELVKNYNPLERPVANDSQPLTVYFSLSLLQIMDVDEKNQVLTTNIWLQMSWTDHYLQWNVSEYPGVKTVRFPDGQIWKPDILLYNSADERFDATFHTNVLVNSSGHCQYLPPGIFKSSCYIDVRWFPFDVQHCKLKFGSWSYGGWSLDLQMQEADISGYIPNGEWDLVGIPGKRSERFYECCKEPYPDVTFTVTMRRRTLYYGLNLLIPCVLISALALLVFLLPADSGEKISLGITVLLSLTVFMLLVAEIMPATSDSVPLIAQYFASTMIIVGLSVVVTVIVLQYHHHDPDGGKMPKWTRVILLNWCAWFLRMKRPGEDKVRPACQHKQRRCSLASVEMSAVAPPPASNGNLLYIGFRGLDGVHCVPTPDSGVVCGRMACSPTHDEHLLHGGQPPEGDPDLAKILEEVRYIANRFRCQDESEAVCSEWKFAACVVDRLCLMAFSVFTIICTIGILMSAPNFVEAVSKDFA

`Cc1cccc(Cl)c1-n1cnc2nc(NCc3ccccc3)sc2c1=O` [JWX-A1228, 6-(2-chloro-6-methylphenyl)-2-(Benzylamino)thiazolo[4,5-d]pyrimidin-7(6H)-one]: the activity at 10 µM turned out to be 110%.

Consider `CCCNc1nc2ncn(-c3c(C)cccc3Cl)c(=O)c2s1` [JWX-A1229, 6-(2-Chloro-6-methylphenyl)-2-(n-propylamino)thiazolo[4,5-d]pyrimidin-7(6H)-one], for which the activity at 10 µM amounted to 110%.

Consider `Cc1cccc(Cl)c1-n1cnc2nc(Nc3ccc(F)c(Cl)c3)sc2c1=O` [JWX-A-C0104, 6-(2-chloro-6-methylphenyl)-2-((3-chloro-4-fluorophenyl)amino)thiazolo[4,5-d]pyrimidin-7(6H)-one], for which the activity at 10 µM was 500% and the EC50 stood at 10 µM.

Turning to `Cc1ccc(Nc2nc3ncn(-c4c(C)cccc4Br)c(=O)c3s2)cc1F` [JWX-A-C0106, 6-(2-Bromo-6-methylphenyl)-2-((3-fluoro-4-methylphenyl)amino)thiazolo[4,5-d]pyrimidin-7(6H)-one], the activity at 10 µM was determined as 200% and the EC50 was 10 µM.

As for `Cc1ccc(Nc2nc3ncn(-c4c(C)cccc4F)c(=O)c3s2)cc1F` [JWX-A-C0111, 6-(2-fluoro-6-methylphenyl)-2-((3-fluoro-4-methylphenyl)amino)thiazolo[4,5-d]pyrimidin-7(6H)-one], the activity at 10 µM came to 110%.

As to `Cc1ccc(-n2cnc3nc(Nc4ccc(C)c(F)c4)sc3c2=O)c(Cl)c1` [JWX-A-C0229, 6-(2-Chloro-4-methylphenyl)-2-((3-fluoro-4-methylphenyl)amino)thiazolo[4,5-d]pyrimidin-7(6H)-one], the activity at 10 µM was determined as 110%.

Consider `Cc1ccc(Nc2nc3ncn(-c4ccccc4Cl)c(=O)c3s2)cc1F` [JWX-A-C0831, 6-(2-Chlorophenyl)-2-((3-fluoro-4-methylphenyl)amino)thiazolo[4,5-d]pyrimidin-7(6H)-one], for which the activity at 10 µM came to 380% and the EC50 was determined as 10 µM.

Turning to `Cc1cccc(Cl)c1-n1cnc2nc(Nc3ccc(OC(F)(F)F)cc3)sc2c1=O` [JWX-A-C0901, 6-(2-Chloro-6-methylphenyl)-2-((4-(trifluoromethoxy)phenyl)amino)thiazolo[4,5-d]pyrimidin-7(6H)-one], the activity at 10 µM amounted to 200% and the EC50 stood at 10 µM.

Turning to `Cc1cccc(Cl)c1-n1cnc2nc(Nc3cccc(OC(F)(F)F)c3)sc2c1=O` [JWX-A-C0907, 6-(2-Chloro-6-methylphenyl)-2-((3-(trifluoromethoxy)phenyl)amino)thiazolo[4,5-d]pyrimidin-7(6H)-one], the activity at 10 µM was found to be 150% and the EC50 amounted to 10 µM.

As for `Cc1cccc(Cl)c1-n1cnc2nc(Nc3ccc(F)c(F)c3)sc2c1=O` [JWX-A-C0915, 6-(2-Chloro-6-methylphenyl)-2-((3,4-difluorophenyl)amino)thiazolo[4,5-d]pyrimidin-7(6H)-one], the activity at 10 µM worked out at 300% and the EC50 was determined as 10 µM.

On to `Cc1cc(C)cc(Nc2nc3ncn(-c4c(C)cccc4Cl)c(=O)c3s2)c1` [JWX-A-C1017, 6-(2-Chloro-6-methylphenyl)-2-((3,5-dimethylphenyl)amino)thiazolo[4,5-d]pyrimidin-7(6H)-one], for which the half-maximal effective concentration (EC50) is 5.02 µM.

Consider `Cc1cccc(Cl)c1-n1cnc2nc(NC(=O)c3ccc(Cl)cc3)sc2c1=O` [JWX-A-C1020, N-(6-(2-Chloro-6-methylphenyl)-7-oxo-6,7-dihydrothiazolo[4,5-d]pyrimidin-2-yl)-4-chlorobenzamide], for which the activity at 10 µM was found to be 350% and the EC50 amounted to 10 µM.

For the compound `Cc1ccc(Nc2nc3ncn(-c4ccccc4C)c(=O)c3s2)cc1F` [JWX-A-C1026, 6-(o-tolyl)-2-((3-fluoro-4-methylphenyl)amino)-thiazolo[4,5-d]pyrimidin-7(6H)-one], the activity at 10 µM was 300% and the EC50 worked out at 10 µM.

As for `Cc1cccc(Cl)c1-n1cnc2nc(NC(=O)c3ccc(Br)cc3)sc2c1=O` [JWX-A-C1122, N-(6-(2-chloro-6-methylphenyl)-7-oxo-6,7-dihydrothiazolo[4,5-d]pyrimidin-2-yl)-4-bromobenzamide], the activity at 10 µM was determined as 1000% and the EC50 is 9.8 µM.

Consider `Cc1cccc(Cl)c1-n1cnc2nc(NC(=O)c3ccc(C(F)(F)F)cc3)sc2c1=O` [JWX-A-C1128, N-(6-(2-Chloro-6-methylphenyl)-7-oxo-6,7-dihydrothiazolo[4,5-d]pyrimidin-2-yl)-4-(trifluoromethyl)benzamide], for which the activity at 10 µM came to 200% and the EC50 was 10 µM.

In the case of `Cc1cccc(Cl)c1-n1cnc2nc(NC(=O)c3ccc(OC(F)(F)F)cc3)sc2c1=O` [JWX-A-C1205, N-(6-(2-Chloro-6-methylphenyl)-7-oxo-6,7-dihydrothiazolo[4,5-d]pyrimidin-2-yl)-4-(trifluoromethoxy)benzamide], the activity at 10 µM amounted to 980% and the EC50 is 10.8 µM.

Consider `Cc1cccc(Cl)c1-n1cnc2nc(-c3ccccc3)sc2c1=O` [JWX-C1200, 6-(2-Chloro-6-methylphenyl)-2-phenylthiazolo[4,5-d]pyrimidin-7(6H)-one], for which the activity at 10 µM stood at 110%.

On to `Cc1cc(C)c(-n2cnc3nc(Nc4ccccc4)sc3c2=O)c(C)c1` [LD252, 6-Mesityl-2-(phenylamino)thiazolo[4,5-d]pyrimidin-7(6H)-one], for which the activity at 10 µM stood at 110%.

Take `Cc1cc(C)c(-n2cnc3nc(Nc4ccccn4)sc3c2=O)c(C)c1` [LD286, 6-Mesityl-2-(pyridin-2-ylamino)thiazolo[4,5-d]pyrimidin-7(6H)-one]: the activity at 10 µM amounted to 110%.

`Cc1cc(C)c(-n2cnc3nc(Nc4ccncc4)sc3c2=O)c(C)c1` [LD293, 6-Mesityl-2-(pyridin-4-ylamino)thiazolo[4,5-d]pyrimidin-7(6H)-one]: the activity at 10 µM was 110%.

In the case of `CSc1nc2ncn(-c3c(Cl)cccc3Cl)c(=O)c2s1` [LD493, 6-(2,6-Dichlorophenyl)-2-(methylthio) thiazolo[4,5-d]pyrimidin-7(6H)-one], the activity at 10 µM came to 110%.

As for `CSc1nc2nnn(-c3c(Cl)cccc3Cl)c(=O)c2s1` [LD496, 3-(2,6-Dichlorophenyl)-6-(methylthio) thiazolo[4,5-d][1,2,3]triazin-4(3H)-one], the activity at 10 µM came out at 110%.

Take `Cc1cccc(Cl)c1-n1cnc2nc(SCc3ccccc3F)sc2c1=O` [LYH150309-2F, 6-(2-Chloro-6-methylphenyl)-2-((2-fluorobenzyl)thio)thiazolo[4,5-d]pyrimidin-7(6H)-one]: the activity at 10 µM stood at 620% and the half-maximal effective concentration (EC50) is 4.18 µM.

Take `Cc1cccc(Cl)c1-n1cnc2nc(SCc3cccc(F)c3)sc2c1=O` [LYH150310-3F, 6-(2-Chloro-6-methylphenyl)-2-((3-fluorobenzyl)thio)thiazolo[4,5-d]pyrimidin-7(6H)-one]: the activity at 10 µM was found to be 500% and the EC50 was found to be 10 µM.

In the case of `Cc1cccc(Cl)c1-n1cnc2nc(SCc3ccc(F)cc3)sc2c1=O` [LYH150312-4F, 6-(2-Chloro-6-methylphenyl)-2-((4-fluorobenzyl)thio)thiazolo[4,5-d]pyrimidin-7(6H)-one], the activity at 10 µM was determined as 670% and the EC50 is 2.87 µM.

In the case of `Cc1ccc(CSc2nc3ncn(-c4c(C)cccc4Cl)c(=O)c3s2)cc1` [LYH150318-4Me, 6-(2-Chloro-6-methylphenyl)-2-((4-methylbenzyl)thio)thiazolo[4,5-d]pyrimidin-7(6H)-one], the activity at 10 µM turned out to be 300% and the EC50 turned out to be 10 µM.

Regarding `Cc1cccc(CSc2nc3ncn(-c4c(C)cccc4Cl)c(=O)c3s2)c1` [LYH150324-3Me, 6-(2-Chloro-6-methylphenyl)-2-((3-methylbenzyl)thio)thiazolo[4,5-d]pyrimidin-7(6H)-one], the activity at 10 µM came to 230% and the EC50 came to 10 µM.

Turning to `Cc1ccccc1CSc1nc2ncn(-c3c(C)cccc3Cl)c(=O)c2s1` [LYH150325-2Me, 6-(2-Chloro-6-methylphenyl)-2-((2-methylbenzyl)thio)thiazolo[4,5-d]pyrimidin-7(6H)-one], the activity at 10 µM stood at 370% and the EC50 turned out to be 10 µM.

For `COc1ccc(CSc2nc3ncn(-c4c(C)cccc4Cl)c(=O)c3s2)cc1` [LYH150326-4OCH3, 6-(2-Chloro-6-methylphenyl)-2-((4-methoxybenzyl)thio)thiazolo[4,5-d]pyrimidin-7(6H)-one], the activity at 10 µM was determined as 300% and the EC50 is 10 µM.

As to `Cc1cccc(Cl)c1-n1cnc2nc(SCc3ccc(C(F)(F)F)cc3)sc2c1=O` [LYH150409-4CF3, 6-(2-Chloro-6-methylphenyl)-2-((4-(trifluoromethyl)benzyl)thio)thiazolo[4,5-d]pyrimidin-7(6H)-one], the activity at 10 µM stood at 140% and the EC50 amounted to 10 µM.

As to `Cc1cccc(Cl)c1-n1cnc2nc(Sc3ccc(F)cc3)sc2c1=O` [LYH150908, 6-(2-Chloro-6-methylphenyl)-2-((4-fluorophenyl)thio)thiazolo[4,5-d]pyrimidin-7(6H)-one], the activity at 10 µM was 200% and the EC50 worked out at 10 µM.
